Reference: ChEMBL document CHEMBL6153097, “Design, synthesis, and biological evaluation of Flavokavain B derivatives as potent TRF2 inhibitors for the treatment of Osteosarcoma” (Eur J Med Chem, 2025)
Calls of active or inactive are those of the source. The calls are words filed in the database; no cut-off is given here.

Columns and labels:
U2OS [1] = assay: Induction of apoptosis in human U2OS cells assessed as early apoptotic cells at 2 uM measured after 48 hrs annexin-V and propidium iodide staining based flow cytometry analysis (reference value: 2.38%); type: functional
U2OS [2] = assay: Induction of apoptosis in human U2OS cells assessed as late apoptotic cells at 2 uM measured after 48 hrs annexin-V and propidium iodide staining based flow cytometry analysis (reference value: 5.94%); type: functional
U2OS [3] = assay: Induction of apoptosis in human U2OS cells assessed as early apoptotic cells at 4 uM measured after 48 hrs annexin-V and propidium iodide staining based flow cytometry analysis (reference value: 2.38%); type: functional
U2OS [4] = assay: Induction of apoptosis in human U2OS cells assessed as late apoptotic cells at 4 uM measured after 48 hrs annexin-V and propidium iodide staining based flow cytometry analysis (reference value: 5.94%); type: functional
MG-63 [5] = assay: Induction of apoptosis in human MG-63 cells assessed as viable cells at 4 uM measured after 48 hrs annexin-V and propidium iodide staining based flow cytometry analysis (reference value: 90.7%); type: functional; settings: read-out: Activity
MG-63 [6] = assay: Induction of apoptosis in human MG-63 cells assessed as early apoptotic cells at 4 uM measured after 48 hrs annexin-V and propidium iodide staining based flow cytometry analysis (reference value: 0.66%); type: functional
U2OS [7] = assay: Antiproliferative activity against human U2OS cells assessed as reduction in cell viability at 2 to 4 uM measured for 8 days by PDL assay; type: functional, cell-based; settings: dose 2-4 µM, time 8.0 day
MG-63 [8] = assay: Induction of DNA damage response in human MG-63 cells assessed as reduction in TRF2 expression by measuring accumulation of telomere-free ends at 2 to 4 uM by FITC/DAPI based Quantitative FISH (Q-FISH) assay; type: functional, cell-based; settings: dose 2-4 µM
MG-63 [9] = assay: Induction of DNA damage in human MG-63 cells assessed as increase in 53BP1 foci by Immunofluorescence based FISH assay; type: functional, cell-based; settings: dose 2-4 µM
U2OS [10] = assay: Induction of DNA damage in human U2OS cells assessed as increase in 53BP1 foci by Immunofluorescence based FISH assay; type: functional, cell-based; settings: dose 2-4 µM
U2OS [11] = assay: Induction of DNA damage in human U2OS cells assessed as upregulation of gamma-H2AX level by Immunofluorescence based FISH assay; type: functional, cell-based; settings: dose 2-4 µM
MG-63 [12] = assay: Induction of DNA damage in human MG-63 cells assessed as upregulation of gamma-H2AX level by Immunofluorescence based FISH assay; type: functional, cell-based; settings: dose 2-4 µM
[13] = target: T1, Telomeric repeat-binding factor 2 (Homo sapiens) (UniProt Q15554); assay: Induction of thermal stabilization of TRF2 TRFH domain in human MG-63 cells at 46 to 55 degC incubated for 4 hrs by cellular thermal shift assay (CESTA) based Western blot analysis; type: cell-based
T1 sequence (whole entry): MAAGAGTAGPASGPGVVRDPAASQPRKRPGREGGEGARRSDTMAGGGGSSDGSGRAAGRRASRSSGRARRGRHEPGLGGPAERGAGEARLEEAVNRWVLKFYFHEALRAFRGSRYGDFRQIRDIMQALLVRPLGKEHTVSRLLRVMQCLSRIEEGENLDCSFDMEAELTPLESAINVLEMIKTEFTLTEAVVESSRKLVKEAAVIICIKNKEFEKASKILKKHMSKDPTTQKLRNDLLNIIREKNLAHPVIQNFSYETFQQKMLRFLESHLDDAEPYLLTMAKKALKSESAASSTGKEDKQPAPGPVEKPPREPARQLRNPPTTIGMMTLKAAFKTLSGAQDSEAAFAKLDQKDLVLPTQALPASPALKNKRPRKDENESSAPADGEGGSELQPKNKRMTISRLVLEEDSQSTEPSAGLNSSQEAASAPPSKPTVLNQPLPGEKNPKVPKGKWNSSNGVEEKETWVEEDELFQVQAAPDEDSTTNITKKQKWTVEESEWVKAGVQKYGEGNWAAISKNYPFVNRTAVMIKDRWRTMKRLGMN

U2OS [14] = assay: Inhibition of TRF2 expression in human U2OS cells by co-immunoprecipitation based Western blot analysis; type: functional, cell-based
[15] = Acute toxicity in mouse assessed as aspartate transaminase level (AST) level in serum at 30 to 90 mg/kg, po single dose measured for 7 days; type: organism-based; settings: in vivo, 168 h, dose 30-90 mg/kg, time 7 day
[16] = Acute toxicity in mouse assessed as alanine aminotransferase level (ALT) level in serum at 30 to 90 mg/kg, po single dose measured for 7 days; type: organism-based; settings: in vivo, 168 h, dose 30-90 mg/kg, time 7 day
[17] = Acute toxicity in mouse assessed as change in weight of heart at 30 to 90 mg/kg, po single dose measured for 7 days; type: organism-based; settings: in vivo, 168 h, dose 30-90 mg/kg, time 7 day
[18] = Acute toxicity in mouse assessed as change in weight of liver at 30 to 90 mg/kg, po single dose measured for 7 days; type: organism-based; settings: in vivo, 168 h, dose 30-90 mg/kg, time 7 day
[19] = Acute toxicity in mouse assessed as change in weight of lung at 30 to 90 mg/kg, po single dose measured for 7 days; type: organism-based; settings: in vivo, 168 h, dose 30-90 mg/kg, time 7 day
[20] = Toxicity in female BALB/c mouse model xenografted with human MG-63 cells assessed as drug tolerance at 10 to 60 mg/kg, via oral gavage administered once a day for 3 weeks; type: organism-based; settings: in vivo, 504 h, dose 10-60 mg/kg
MG-63 [21] = assay: Antitumor activity against human MG-63 cells xenografted in female BALB/c mouse model assessed as incomplete nuclei appearance in tumor tissue treated via oral gavage administered once a day for 3 weeks by HE staining analysis; type: functional, cell-based; settings: dose 10-60 mg/kg
MG-63 [22] = assay: Antitumor activity against human MG-63 cells xenografted in female BALB/c mouse model assessed as downregulation of TRF2 in tumor treated via oral gavage administered once a day for 3 weeks by IHC analysis; type: functional, cell-based; settings: dose 10-60 mg/kg

What does the source list for `COc1cc(OC)c(C(=O)/C=C/c2cccc(Br)c2)c(OC)c1`?
Activity (U2OS [1]): 12.9%; Activity (U2OS [2]): 18.3%; Activity (U2OS [3]): 31%; Activity (U2OS [4]): 16.3%; viability at 4 µM (MG-63 [5]): 17.5%; Activity (MG-63 [6]): 15.2%; Activity (U2OS [7]): Active; Activity (MG-63 [8]): Active; Activity (MG-63 [9]): Dose-dependent-effect; Activity (U2OS [10]): Dose-dependent-effect; Activity (U2OS [11]): Dose-dependent-effect; Activity (MG-63 [12]): Dose-dependent-effect; Activity [13]: Active; inhibition (U2OS [14]): Active; Activity [15]: Non-toxic; Activity [16]: Non-toxic; Activity [17]: Non-toxic; Activity [18]: Non-toxic; Activity [19]: Non-toxic; Activity [20]: Non-toxic; Activity (MG-63 [21]): Dose-dependent-effect; Activity (MG-63 [22]): Dose-dependent-effect
